Results on eleven compounds are retold here after ChEMBL document CHEMBL1201862, “PubChem BioAssay data set” (2004).

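In this assay, cells in 96-well plates receive the compound at five concentrations for 48 hours. Endpoints are linearly interpolated between the surrounding concentrations. At the GI50, growth is halved.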 Activity calls are given as the source filed them. No stated cut-off is given here; in the data, active = GI50 up to about 1.1 µM and inactive = higher.

Test systems include ACHN; BT-549; DU-145; HCT-116; HL-60; HOP-62; Hs-578T; MDA-N; MOLT-4; OVCAR-3; OVCAR-4; SF-268; SF-539; SR; SW-620; T47D; UACC-62; SK-MEL-5; TK-10; HCC 2998.
Holding throughout (experiment): NCI-60 cell line screen, 48 h

Regarding `CC12c3c4ccc(C=O)c3Oc3ccc(C=O)c(c31)Oc1ccc(C=O)c(c12)O4`, the GI50 in the assay with ACHN, in the assay with BT-549, in the assay with DU-145, with HCT-116, with HL-60 and in the assay with HOP-62 was > 25 µM (inactive) each time. The GI50 in the assay on Hs-578T, in the assay with MDA-N, with MOLT-4, with OVCAR-3, in the assay on OVCAR-4 and in the assay with SF-268 was > 25 µM (inactive) throughout. For the same compound, the GI50 in the assay on SF-539 is > 25 µM (inactive); with SR it was 7.11 µM (inactive); in the assay with SW-620, > 25 µM (inactive); in the assay on T47D, > 25 µM (inactive); with UACC-62, > 25 µM (inactive).
As to `C=CC(Br)(CBr)CCC(Br)C(C)C` (configuration not stated), the GI50 was 8.15 µM (inactive) in the assay on ACHN; 3.14 µM (inactive) with BT-549; 8.55 µM (inactive) in the assay on DU-145; 5.57 µM (inactive) in the assay on HCT-116; 0.769 µM (active) in the assay with HL-60; 3.18 µM (inactive) in the assay with HOP-62. Besides, the GI50 in the assay on Hs-578T is 2.64 µM (inactive); in the assay on MDA-N it was 2.07 µM (inactive); in the assay with MOLT-4, 1.91 µM (inactive); in the assay with OVCAR-3, 4.5 µM (inactive); in the assay with OVCAR-4 it was 4.9 µM (inactive); in the assay on SF-268, 5.48 µM (inactive). The GI50 was 2.66 µM (inactive) in the assay with SF-539; 5.24 µM (inactive) in the assay with SK-MEL-5; 1.62 µM (inactive) with SR; 2.2 µM (inactive) with SW-620; 0.333 µM (active) with T47D; 3.13 µM (inactive) in the assay on TK-10. Besides, in the assay on UACC-62, the GI50 was 3.12 µM (inactive).
For the compound `CN1C2CCC1CC(CCOC(c1ccc(F)cc1)c1ccc(F)cc1)C2` (configuration not stated), the GI50 with ACHN was 17.1 µM (inactive); with BT-549, 16.9 µM (inactive); with DU-145, 15.7 µM (inactive); in the assay with HCT-116 it was 12.7 µM (inactive); with HL-60 it was 16.1 µM (inactive); with HOP-62, 16 µM (inactive). In addition, the GI50 in the assay on Hs-578T is 17.8 µM (inactive); with MDA-N, 14.5 µM (inactive); with MOLT-4, 11.9 µM (inactive); in the assay on OVCAR-3, 16 µM (inactive); in the assay on OVCAR-4 it was 17.4 µM (inactive); in the assay with SF-268 it was 15.8 µM (inactive). Also, the GI50 with SF-539 is 15.9 µM (inactive); in the assay on SK-MEL-5 it was 9.23 µM (inactive); with SR, 14.8 µM (inactive); in the assay on SW-620, 19.4 µM (inactive); with T47D, 18.5 µM (inactive); in the assay with TK-10, 15.3 µM (inactive).
In the case of `COc1ccc([C@]23CCN4COC[C@@H]([C@H]42)C2(CC3)OCC(C)(C)CO2)cc1OC`, the GI50 with ACHN, in the assay on BT-549, in the assay on DU-145, with HCC 2998, in the assay on HCT-116 and with HL-60 was > 100 µM (inactive) throughout. For the same compound, the GI50 in the assay with HOP-62, with Hs-578T, in the assay on MDA-N, in the assay on MOLT-4, in the assay on OVCAR-4 and in the assay on SF-268 was > 100 µM (inactive) throughout. In addition, the GI50 in the assay on SK-MEL-5 was > 100 µM (inactive); with SR, > 100 µM (inactive); in the assay on SW-620, > 100 µM (inactive); in the assay with T47D, 66.5 µM (inactive); in the assay with TK-10, > 100 µM (inactive); in the assay on UACC-62 it was > 100 µM (inactive).
As for `CC(=O)Oc1ccc2c(c1)O/C(=C\c1ccc(N(C)C)cc1)C2=O`, the GI50 in the assay on ACHN was > 100 µM (inactive); with BT-549, 68.4 µM (inactive); in the assay on DU-145, > 100 µM (inactive); in the assay on HCC 2998, > 100 µM (inactive); in the assay with HCT-116, 85.5 µM (inactive); in the assay with HL-60, 32.7 µM (inactive). Besides, the GI50 in the assay on HOP-62 is > 100 µM (inactive); in the assay with Hs-578T it was 21 µM (inactive); in the assay on MDA-N, 36.4 µM (inactive); with MOLT-4 it was 47.1 µM (inactive); in the assay on OVCAR-4, 75.2 µM (inactive); in the assay on SF-268 it was > 100 µM (inactive). The GI50 with SF-539 is 26.4 µM (inactive); with SK-MEL-5, > 100 µM (inactive); in the assay on SR it was 37.2 µM (inactive); with SW-620 it was 52.2 µM (inactive); in the assay with T47D, > 100 µM (inactive); in the assay with TK-10, > 100 µM (inactive). For the same compound, the GI50 in the assay with UACC-62 is > 100 µM (inactive).
As to `C[C@]12CCC(=O)C=C1C[C@@H](O)[C@@H]1[C@@H]2CC[C@@]2(C)[C@H]1CC[C@]2(C)O`, the GI50 in the assay with ACHN, in the assay on BT-549, with DU-145, in the assay with HCC 2998, in the assay with HCT-116 and in the assay on HL-60 was > 100 µM (inactive) in each case. Also, the GI50 with HOP-62, in the assay on Hs-578T, with MDA-N, in the assay with OVCAR-3, in the assay with OVCAR-4 and in the assay on SF-268 was > 100 µM (inactive) each time. Further, the GI50 in the assay with SK-MEL-5, in the assay on SR, in the assay on SW-620, with T47D, in the assay on TK-10 and in the assay with UACC-62 was > 100 µM (inactive) throughout.
With `CN(C)c1ccc(/C=C2\C[C@H]3[C@@H]4CCC5=CC(=O)CC[C@]5(C)[C@H]4CC[C@]3(C)C2=O)cc1`, the GI50 is 29.4 µM (inactive) with ACHN; 51.2 µM (inactive) in the assay with BT-549; 76.6 µM (inactive) in the assay on DU-145; 24.7 µM (inactive) with HCT-116; 17.2 µM (inactive) in the assay on HL-60; > 100 µM (inactive) in the assay with HOP-62. Besides, the GI50 with Hs-578T is 38.4 µM (inactive); in the assay with MDA-N, 19.5 µM (inactive); in the assay on MOLT-4, 14.8 µM (inactive); with OVCAR-3, 88.1 µM (inactive); with OVCAR-4 it was 59.7 µM (inactive); in the assay with SF-268, 46.3 µM (inactive). In addition, the GI50 in the assay with SF-539 was 28.7 µM (inactive); in the assay with SK-MEL-5 it was 12.4 µM (inactive); in the assay with SR it was 17.7 µM (inactive); in the assay on SW-620, 48.9 µM (inactive); in the assay with T47D, 17.4 µM (inactive); with TK-10, 32.5 µM (inactive). Besides, the GI50 in the assay on UACC-62 is 20 µM (inactive).
For `C[Si](C)(c1ccc(C(=O)O)cc1)c1ccc(C(=O)O)cc1`, the GI50 with ACHN, in the assay with BT-549, with DU-145, in the assay on HCT-116, with HOP-62 and in the assay on Hs-578T was > 100 µM (inactive) each time. The GI50 with MDA-N, in the assay on MOLT-4, in the assay on OVCAR-3, in the assay on OVCAR-4, in the assay on SF-268 and with SF-539 was > 100 µM (inactive) throughout. For the same compound, the GI50 with SK-MEL-5, with SR, with SW-620, in the assay with T47D, with TK-10 and with UACC-62 was > 100 µM (inactive) throughout.
In the case of `CC(=O)Nc1cc(CN2CCCCC2)c(O)c2ncccc12`, the GI50 with ACHN is 17.8 µM (inactive); in the assay on BT-549, 77.4 µM (inactive); in the assay on DU-145, 6.75 µM (inactive); in the assay on HCT-116, 20.9 µM (inactive); in the assay with HL-60 it was 14.5 µM (inactive); in the assay with HOP-62 it was 27.2 µM (inactive). Moreover, the GI50 with Hs-578T is 67.3 µM (inactive); with MDA-N it was 42 µM (inactive); in the assay with MOLT-4, 10.1 µM (inactive); with OVCAR-3 it was 25.8 µM (inactive); in the assay on OVCAR-4, 35.2 µM (inactive); in the assay with SF-268 it was 23.7 µM (inactive). The GI50 with SF-539 is 58.5 µM (inactive); in the assay on SK-MEL-5 it was 24.3 µM (inactive); with SR it was 8.75 µM (inactive); in the assay with SW-620, 39.7 µM (inactive); with T47D, 11.8 µM (inactive); in the assay with TK-10, 29 µM (inactive). Also, the GI50 in the assay on UACC-62 is 19.6 µM (inactive).
`COc1c(NC(C)=O)c2ccccc2c2ccccc12`: the GI50 with ACHN is > 100 µM (inactive); with BT-549, > 100 µM (inactive); in the assay on DU-145, > 100 µM (inactive); in the assay on HCT-116, > 100 µM (inactive); in the assay with HL-60, 99.5 µM (inactive); in the assay on HOP-62, > 100 µM (inactive). Also, the GI50 was > 100 µM (inactive) in the assay with Hs-578T; > 100 µM (inactive) with MDA-N; 66.5 µM (inactive) in the assay on MOLT-4; > 100 µM (inactive) with OVCAR-3; > 100 µM (inactive) in the assay on OVCAR-4; > 100 µM (inactive) in the assay with SF-268. Besides, the GI50 with SK-MEL-5, with SR, in the assay on SW-620, in the assay on T47D, in the assay with TK-10 and in the assay with UACC-62 was > 100 µM (inactive) throughout.
For `O=[N+]([O-])c1ccc(-c2nc3ccccc3o2)cc1`, the GI50 with ACHN is > 100 µM (inactive); in the assay with BT-549, > 100 µM (inactive); with DU-145 it was > 100 µM (inactive); in the assay with HCC 2998, > 100 µM (inactive); in the assay on HCT-116 it was > 100 µM (inactive); in the assay on HOP-62, 69 µM (inactive). Also, the GI50 in the assay with Hs-578T, in the assay with MDA-N, with MOLT-4, in the assay with OVCAR-3, in the assay with OVCAR-4 and in the assay on SF-268 was > 100 µM (inactive) in each case. For the same compound, the GI50 in the assay on SF-539, with SK-MEL-5, in the assay with SR, in the assay on SW-620, with T47D and with TK-10 was > 100 µM (inactive) in each case. In addition, the GI50 in the assay with UACC-62 is > 100 µM (inactive).
